The values that follow come from ChEMBL document CHEMBL1201862, “PubChem BioAssay data set” (2004).

As usually defined, the IC50 is the concentration that inhibits the measured activity by half. As a reminder, the EC50 is the concentration giving half of the maximal effect. Broadly, the AC50 is the concentration giving half of the maximal activity seen.

The target in experiment [1] is T1, Mannose-6-phosphate isomerase (Homo sapiens, UniProt P34949).
T1 sequence (P34949 whole entry): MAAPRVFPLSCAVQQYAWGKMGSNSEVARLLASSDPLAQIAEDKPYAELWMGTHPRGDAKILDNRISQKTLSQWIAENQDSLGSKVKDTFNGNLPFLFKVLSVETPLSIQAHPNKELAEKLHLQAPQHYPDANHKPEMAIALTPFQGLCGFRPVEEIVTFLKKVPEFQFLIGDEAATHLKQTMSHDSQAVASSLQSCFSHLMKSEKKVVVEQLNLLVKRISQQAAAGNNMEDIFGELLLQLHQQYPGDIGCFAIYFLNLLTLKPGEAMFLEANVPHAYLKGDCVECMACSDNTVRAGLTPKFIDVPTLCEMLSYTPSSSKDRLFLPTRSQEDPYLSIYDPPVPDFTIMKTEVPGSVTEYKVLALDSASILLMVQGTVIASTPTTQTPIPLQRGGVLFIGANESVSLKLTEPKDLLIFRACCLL
The experiment can be described thus: MPI inhibition at elevated mannose 6-phosphate – biochemical, fluorescence intensity, high mannose 6-phosphate, primary screen (AID 1220).

Experiment [2] can be described thus: Trypanosoma cruzi growth suppression in host cells – NIH3T3 host cells, beta-gal luminescence, confirmation (AID 2044).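 Note: intracellular parasites grown in NIH/3T3 mouse fibroblasts as host cells; luminescent beta-galactosidase reporter signal from transgenic T. cruzi replicating inside host cells; inhibitors lower the luminescence signal.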 The class given is functional, cell-based.
For experiment [3], the system named is BJ. Briefly: BJ-TERT-LT-ST fibroblast viability loss – cell-based, RAS-independent, luminescence, dose response (AID 1935).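 Note: BJ fibroblasts immortalized with TERT plus LT and ST oncogenes.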 As to conditions: Homo sapiens. The class given is functional.
The subject of experiment [4] is BJ. Briefly: cells. The class given is functional, cell-based. As to conditions: Homo sapiens.
Experiment [5] can be described thus: Luminescence-based dose response cell-based high throughput screening assay for cytotoxic compounds using the IEC-6 intestinal epithelial cell line. [Related pubchem assays: 1858 (Summary AID.), 1825 (Counterscreen.), 1907 (Confirmation screen.)]. The class given is functional. For orientation: Counterscreens check selectivity or assay interference.
The nature of experiment [6]: cells.
For experiment [7], the system named is BJ. Briefly: BJ-TERT fibroblast viability loss – cell-based, RAS-independent, luminescence, dose response (AID 1933). The class given is functional. The conditions noted are these: Homo sapiens.
A short description of experiment [8]: HEK-293T viability loss after treatment – luminescence, T-cell screen hits, cytotoxicity control for TCR NF-kB inhibitor project, dose response (AID 489026).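 Note: cells exposed to compound about 14 hours before the viability readout.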 The class given is functional, cell-based.
Experiment [9] is described as follows: DRD fibroblast viability loss – cell-based, non-viral oncogenic, luminescence, dose response (AID 1934). The class given is functional. As to conditions: Homo sapiens.
The nature of experiment [10]: NIH3T3 cell viability loss – ATP luminescence, mouse fibroblasts, counter-screen, dose response (AID 2010).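 Note: cells exposed to compound for about 90 hours before reading.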 The class given is functional, cell-based.
The target of experiment [11] is T2, Hexokinase HKDC1 (Homo sapiens, UniProt Q2TB90).
T2 sequence (Q2TB90 whole entry): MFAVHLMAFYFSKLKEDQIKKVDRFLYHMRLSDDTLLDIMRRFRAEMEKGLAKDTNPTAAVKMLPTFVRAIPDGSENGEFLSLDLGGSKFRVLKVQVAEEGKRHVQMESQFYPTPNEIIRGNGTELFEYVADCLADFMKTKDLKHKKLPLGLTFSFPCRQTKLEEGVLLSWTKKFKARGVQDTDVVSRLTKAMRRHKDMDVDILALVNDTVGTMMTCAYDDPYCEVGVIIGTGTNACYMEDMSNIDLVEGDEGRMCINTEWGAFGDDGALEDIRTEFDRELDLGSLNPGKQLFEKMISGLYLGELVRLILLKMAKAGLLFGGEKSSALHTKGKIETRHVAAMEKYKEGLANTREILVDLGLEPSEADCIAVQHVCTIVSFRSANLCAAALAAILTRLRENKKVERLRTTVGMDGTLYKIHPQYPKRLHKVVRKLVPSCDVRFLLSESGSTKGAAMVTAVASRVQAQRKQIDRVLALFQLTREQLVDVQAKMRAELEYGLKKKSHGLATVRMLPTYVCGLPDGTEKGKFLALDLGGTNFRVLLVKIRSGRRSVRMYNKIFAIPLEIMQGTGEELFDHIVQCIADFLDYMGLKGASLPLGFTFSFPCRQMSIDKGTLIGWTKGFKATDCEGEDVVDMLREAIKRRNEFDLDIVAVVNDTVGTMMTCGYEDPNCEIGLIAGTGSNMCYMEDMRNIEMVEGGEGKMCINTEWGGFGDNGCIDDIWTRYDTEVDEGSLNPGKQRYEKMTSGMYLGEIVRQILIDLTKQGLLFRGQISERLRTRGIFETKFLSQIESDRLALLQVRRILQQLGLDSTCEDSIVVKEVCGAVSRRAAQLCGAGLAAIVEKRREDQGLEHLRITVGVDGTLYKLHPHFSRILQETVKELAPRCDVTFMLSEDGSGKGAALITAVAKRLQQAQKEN
The experiment can be described thus: inhibition of HKDC1 glucose phosphorylation – biochemical, W721R variant, dose response (AID 504729). The class given is functional.

A short description of experiment [12]: reduced cellular PGC1a acetyl-lysine signal – cell-based, cherry-picked samples, dose response (AID 720514).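 Note: potency may reflect raised or lowered acetylation signal.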 The class given is functional.
For experiment [13], the target named is T3, Short transient receptor potential channel 4 (Mus musculus, UniProt Q9QUQ5).
T3 sequence (Q9QUQ5 whole entry): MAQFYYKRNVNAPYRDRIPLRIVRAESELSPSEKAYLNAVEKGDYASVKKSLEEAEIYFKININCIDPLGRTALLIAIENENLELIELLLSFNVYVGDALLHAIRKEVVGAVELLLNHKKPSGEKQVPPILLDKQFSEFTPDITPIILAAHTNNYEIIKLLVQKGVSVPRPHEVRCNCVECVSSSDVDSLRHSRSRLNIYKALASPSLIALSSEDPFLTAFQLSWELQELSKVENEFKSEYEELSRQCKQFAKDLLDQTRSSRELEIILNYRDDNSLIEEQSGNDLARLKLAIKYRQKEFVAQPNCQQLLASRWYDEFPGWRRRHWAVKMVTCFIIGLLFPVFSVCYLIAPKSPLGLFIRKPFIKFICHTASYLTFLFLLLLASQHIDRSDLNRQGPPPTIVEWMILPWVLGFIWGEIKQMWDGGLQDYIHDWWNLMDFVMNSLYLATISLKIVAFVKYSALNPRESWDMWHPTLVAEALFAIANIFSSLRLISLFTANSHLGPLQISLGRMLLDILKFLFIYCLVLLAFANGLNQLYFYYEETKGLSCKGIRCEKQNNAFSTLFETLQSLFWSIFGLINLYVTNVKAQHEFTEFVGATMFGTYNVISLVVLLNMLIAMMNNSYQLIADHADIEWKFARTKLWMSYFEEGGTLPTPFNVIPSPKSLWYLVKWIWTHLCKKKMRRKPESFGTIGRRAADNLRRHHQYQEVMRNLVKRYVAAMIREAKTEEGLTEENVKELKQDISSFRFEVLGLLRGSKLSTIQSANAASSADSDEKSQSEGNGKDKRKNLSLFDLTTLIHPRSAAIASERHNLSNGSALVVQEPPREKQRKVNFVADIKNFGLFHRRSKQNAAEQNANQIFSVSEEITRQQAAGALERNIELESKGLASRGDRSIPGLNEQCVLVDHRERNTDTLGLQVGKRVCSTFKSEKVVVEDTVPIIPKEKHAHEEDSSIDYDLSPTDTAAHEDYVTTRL
The experiment can be described thus: calcium entry via TRPC4 opening agents – cell-based, HEK293 TRPC4/mu-opioid, Fluo-4 calcium, dose response (AID 434937). The class given is functional.

In experiment [14] the target is T3, Short transient receptor potential channel 4. The experiment can be described thus: block of DAMGO-driven TRPC4 calcium entry – cell-based, HEK293 TRPC4/mu-opioid, Fluo-4 calcium, dose response (AID 434942).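 Note: potency of inhibitors blocking the TRPC4 calcium response.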 The class given is functional.
The nature of experiment [15]: rise of 4N DNA cells, HeLa – IC50, dose response (AID 1117351). The class given is functional, cell-based.
The nature of experiment [16]: rise of 2N DNA cells, HeLa – IC50, dose response (AID 1117349). The class given is functional, cell-based.

Active and inactive are the calls of the source.

In the case of `Cc1cccc(NCc2ccc(O)c3ncccc23)c1`, the IC50 in experiment [1] is > 50000 nM (not active).

For the compound `CC(=O)O[C@@]12CO[C@@H]1C[C@@H](O)[C@@]1(C)C(=O)[C@H](O)C3=C(C)[C@@H](OC(=O)[C@H](O)[C@@H](NC(=O)c4ccccc4)c4ccccc4)C[C@@](O)([C@@H](OC(=O)c4ccccc4)C12)C3(C)C` (some centres undefined), the 50% effective concentration (EC50) is < 100 nM (active) in experiment [2]; 434 nM (inconclusive) in experiment [3]; 44800 nM (inconclusive) in experiment [4]; 22 nM (active) in [6]; 645 nM (active) in [7]; 567 nM (active) in experiment [9]. Further, the EC50 in [10] is 5970 nM (active). Also, the half-maximal inhibitory concentration (IC50) was 157 nM (active) in experiment [5] and > 80000 nM (inactive) in experiment [8].

Regarding `COC1=CC(=O)C(OC)=C(OC)C1=O`, the half-inhibitory concentration (IC50) in [11] was 2560 nM (active).

As to `N#Cc1cccc(-c2ccc([C@@H]3[C@@H]4CN(Cc5ccccc5F)C[C@H]3N4)cc2)c1`, the AC50 in [12] was 8090 nM (active).

As to `Cc1ccccc1Nc1nc(NCc2ccco2)c2ccccc2n1`, the EC50 in experiment [2] is < 100 nM (active); in [6] it was 23 nM (active); in [13], 5960 nM (active); in experiment [14], 1060 nM (active); in [10] it was > 60000 nM (not active).

Turning to `CCCCCCCCCCCCCCCCNc1ccc(C(=O)O)cc1` [CETABEN], the IC50 in [15] and in experiment [16] was > 10000 nM (inactive) throughout.
